Measured values as given in US20080200337A1, “Mixed herbicide compositions for paddy field” (Bayer CropScience, priority 2007, published 2008).
Values joined by “and” are separate entries in the source; they are usually repeats but may differ in a detail not shown here. Equal values may be shown once.

Key:
Type in all cases: in vivo
[1] = test system: transplanted rice; experiment: Phytotoxicity, flooded paddy field, treatment at 3 leaf-stage (Test Example 2)
Procedure: (§1) Carrier: 5 parts by weight of acetone
(§2) Surfactant: one part by weight of benzyloxy polyglycol ether.
(§3) Above described carrier and surfactant are mixed with one part by weight of the active compound ((a) ingredient and (b) ingredient) and the resulting preparation is then diluted with water to obtain given amount of the test drug (the formulation).
(§4) In a greenhouse, seeds or tubers of Echinochloa, Cyperus difformis L., Scirpus juncoides Roxburgh, Monochoria vaginalis Presl, annual broad-leaved weeds (Lindernia procumbens Philcox, Lindernia dubia L. Penn., Rotala indica Koehne, Elatine triandra Schk, Ammannia multiflora Roxb.), Cyperus serotinus Rottboel and Sagittaria pygmaea Miq. were inoculated in a 500 cm^2 pot filled with paddy field soil. After 2 leaf-stage of rice were transplanted, water was poured to a depth of about 3 cm. At 3.0 leaf-stage of Echinochloa, a prescribed, diluted solution of the formulation of each active compound and each herbicidal compound in the table was separately or simultaneously applied to the surface of water. After the treatment, the water depth of 3 cm was maintained, and herbicidal effect was examined after 4 weeks. In the assessment of the herbicidal effect and the phytotoxicity, 100% refers to complete death and 0% refers to no effect or no phytotoxicity.

[2] = test system: Echinochloa; experiment: Weed control, flooded paddy field, treatment at 3 leaf-stage (Test Example 2); details: after 4 weeks
Procedure: as §1, §2, §3, §4

[3] = test system: Sagittaria pygmaea Miq.; experiment: as above; details: after 4 weeks
Procedure: as §1, §2, §3, §4

[4] = test system: Cyperus serotinus Rottboel; experiment: as above; details: after 4 weeks
Procedure: as §1, §2, §3, §4

[5] = test system: Monochoria vaginalis Presl; experiment: as above; details: after 4 weeks
Procedure: as §1, §2, §3, §4

[6] = test system: annual broad-leaved weeds; experiment: as above; details: after 4 weeks
Procedure: as §1, §2, §3, §4

[7] = test system: Scirpus juncoides Roxburgh; experiment: as above; details: after 4 weeks
Procedure: as §1, §2, §3, §4

[8] = test system: transplanted rice; experiment: Phytotoxicity, flooded paddy field, treatment at 1 leaf-stage (Test Example 1)
Procedure: as §1, §2, §3
as §4, with “Echinochloa,” for “Echinochloa, Cyperus difformis L.,”, “1.0” for “3.0”, “Echinochloa oryzicola Vasing,” for “Echinochloa,”

[9] = test system: Echinochloa; experiment: Weed control, flooded paddy field, treatment at 1 leaf-stage (Test Example 1); details: after 4 weeks
Procedure: as §1, §2, §3
as §4, with “Echinochloa,” for “Echinochloa, Cyperus difformis L.,”, “1.0” for “3.0”, “Echinochloa oryzicola Vasing,” for “Echinochloa,”

[10] = test system: Sagittaria pygmaea Miq.; experiment: as above; details: after 4 weeks
Procedure: as §1, §2, §3
as §4, with “Echinochloa,” for “Echinochloa, Cyperus difformis L.,”, “1.0” for “3.0”, “Echinochloa oryzicola Vasing,” for “Echinochloa,”

[11] = test system: Cyperus serotinus Rottboel; experiment: as above; details: after 4 weeks
Procedure: as §1, §2, §3
as §4, with “Echinochloa,” for “Echinochloa, Cyperus difformis L.,”, “1.0” for “3.0”, “Echinochloa oryzicola Vasing,” for “Echinochloa,”

[12] = test system: Monochoria vaginalis Presl; experiment: as above; details: after 4 weeks
Procedure: as §1, §2, §3
as §4, with “Echinochloa,” for “Echinochloa, Cyperus difformis L.,”, “1.0” for “3.0”, “Echinochloa oryzicola Vasing,” for “Echinochloa,”

[13] = test system: annual broad-leaved weeds; experiment: as above; details: after 4 weeks
Procedure: as §1, §2, §3
as §4, with “Echinochloa,” for “Echinochloa, Cyperus difformis L.,”, “1.0” for “3.0”, “Echinochloa oryzicola Vasing,” for “Echinochloa,”

[14] = test system: Scirpus juncoides Roxburgh; experiment: as above; details: after 4 weeks
Procedure: as §1, §2, §3
as §4, with “Echinochloa,” for “Echinochloa, Cyperus difformis L.,”, “1.0” for “3.0”, “Echinochloa oryzicola Vasing,” for “Echinochloa,”

Cc1c(Cl)ccc(OC(C)C(=O)Nc2ccccc2)c1Cl (stereo not shown) [(b-1), clomeprop]
Phytotoxicity (%) ORYSP ([1]; rice, in vivo, 4 weeks): 0%
Herbicidal effect (%) ECHSS ([2]; 350 g ai/ha): 20%
Herbicidal effect (%) SAGPY ([3]; 350 g ai/ha): 90%
Herbicidal effect (%) CYPSEE ([4]; 350 g ai/ha): 20%
Herbicidal effect (%) MOOVP ([5]; 350 g ai/ha): 100%
Herbicidal effect (%) BBBBB ([6]; 350 g ai/ha): 90%
Herbicidal effect (%) SCPSS ([7]; 350 g ai/ha): 90%
Phytotoxicity (%) ORYSP ([8]; 350 g ai/ha, treatment at 1 leaf-stage, after 4 weeks): 10% and 0%
Herbicidal effect (%) ECHSS ([9]; 350 g ai/ha): 20%
Herbicidal effect (%) SAGPY ([10]; 350 g ai/ha): 90%
Herbicidal effect (%) CYPSEE ([11]; 350 g ai/ha): 50%
Herbicidal effect (%) MOOVP ([12]; 350 g ai/ha): 100%
Herbicidal effect (%) BBBBB ([13]; 350 g ai/ha): 100%
Herbicidal effect (%) SCPSS ([14]; 350 g ai/ha): 90%

CC(C)(NC(=O)C(Br)C(C)(C)C)c1ccccc1 (stereo not shown) [(b-2), bromobutide]
Phytotoxicity (%) ORYSP ([1]; rice, in vivo, 4 weeks): 0%
Herbicidal effect (%) ECHSS ([2]; 750 g ai/ha): 45%
Herbicidal effect (%) SAGPY ([3]; 750 g ai/ha): 40%
Herbicidal effect (%) CYPSEE ([4]; 750 g ai/ha): 90%
Herbicidal effect (%) MOOVP ([5]; 750 g ai/ha): 70%
Herbicidal effect (%) BBBBB ([6]; 750 g ai/ha): 30%
Herbicidal effect (%) SCPSS ([7]; 750 g ai/ha): 80%
Phytotoxicity (%) ORYSP ([8]; 750 g ai/ha, treatment at 1 leaf-stage, after 4 weeks): 0%
Herbicidal effect (%) ECHSS ([9]; 750 g ai/ha): 100%
Herbicidal effect (%) SAGPY ([10]; 750 g ai/ha): 70%
Herbicidal effect (%) CYPSEE ([11]; 750 g ai/ha): 70%
Herbicidal effect (%) MOOVP ([12]; 750 g ai/ha): 80%
Herbicidal effect (%) BBBBB ([13]; 750 g ai/ha): 50%
Herbicidal effect (%) SCPSS ([14]; 750 g ai/ha): 90%

Cc1ccc(C(=O)COc2c(C(=O)c3ccc(Cl)c(C)c3Cl)c(C)nn2C)cc1 [(b-3), benzofenap]
Phytotoxicity (%) ORYSP ([1]; rice, in vivo, 4 weeks): 0%
Herbicidal effect (%) ECHSS ([2]; 800 g ai/ha): 10%
Herbicidal effect (%) SAGPY ([3]; 800 g ai/ha): 60%
Herbicidal effect (%) CYPSEE ([4]; 800 g ai/ha): 0%
Herbicidal effect (%) MOOVP ([5]; 800 g ai/ha): 50%
Herbicidal effect (%) BBBBB ([6]; 800 g ai/ha): 70%
Herbicidal effect (%) SCPSS ([7]; 800 g ai/ha): 0%
Phytotoxicity (%) ORYSP ([8]; 800 g ai/ha, treatment at 1 leaf-stage, after 4 weeks): 0%
Herbicidal effect (%) ECHSS ([9]; 800 g ai/ha): 80%
Herbicidal effect (%) SAGPY ([10]; 800 g ai/ha): 70%
Herbicidal effect (%) CYPSEE ([11]; 800 g ai/ha): 20%
Herbicidal effect (%) MOOVP ([12]; 800 g ai/ha): 80%
Herbicidal effect (%) BBBBB ([13]; 800 g ai/ha): 100%
Herbicidal effect (%) SCPSS ([14]; 800 g ai/ha): 70%

COC(=O)c1ccccc1CS(=O)(=O)NC(=O)Nc1nc(OC)cc(OC)n1 [(b-4), bensulfuron methyl]
Phytotoxicity (%) ORYSP ([1]; rice, in vivo, 4 weeks): 0%
Herbicidal effect (%) ECHSS ([2]; 50 g ai/ha): 20%
Herbicidal effect (%) SAGPY ([3]; 50 g ai/ha): 80%
Herbicidal effect (%) CYPSEE ([4]; 50 g ai/ha): 80%
Herbicidal effect (%) MOOVP ([5]; 50 g ai/ha): 90%
Herbicidal effect (%) BBBBB ([6]; 50 g ai/ha): 90%
Herbicidal effect (%) SCPSS ([7]; 50 g ai/ha): 85%
Phytotoxicity (%) ORYSP ([8]; rice, in vivo, 4 weeks): 0%
Herbicidal effect (%) ECHSS ([9]; 50 g ai/ha): 50%
Herbicidal effect (%) SAGPY ([10]; 50 g ai/ha): 90%
Herbicidal effect (%) CYPSEE ([11]; 50 g ai/ha): 85%
Herbicidal effect (%) MOOVP ([12]; 50 g ai/ha): 90%
Herbicidal effect (%) BBBBB ([13]; 50 g ai/ha): 90%
Herbicidal effect (%) SCPSS ([14]; 50 g ai/ha): 90%

CCN(C(=O)n1nnn(-c2ccccc2Cl)c1=O)C1CCCCC1 [(b-6), fentrazamide]
Phytotoxicity (%) ORYSP ([1]; 300 g ai/ha, treatment at 3 leaf-stage, after 4 weeks): 0%
Herbicidal effect (%) ECHSS ([2]; 300 g ai/ha): 69%
Herbicidal effect (%) SAGPY ([3]; 300 g ai/ha): 50%
Herbicidal effect (%) CYPSEE ([4]; 300 g ai/ha): 75%
Herbicidal effect (%) MOOVP ([5]; 300 g ai/ha): 55%
Herbicidal effect (%) BBBBB ([6]; 300 g ai/ha): 55%
Herbicidal effect (%) SCPSS ([7]; 300 g ai/ha): 80%
Phytotoxicity (%) ORYSP ([8]; 300 g ai/ha, treatment at 1 leaf-stage, after 4 weeks): 0%
Herbicidal effect (%) ECHSS ([9]; 300 g ai/ha): 95%
Herbicidal effect (%) SAGPY ([10]; 300 g ai/ha): 50%
Herbicidal effect (%) CYPSEE ([11]; 300 g ai/ha): 95%
Herbicidal effect (%) MOOVP ([12]; 300 g ai/ha): 95%
Herbicidal effect (%) BBBBB ([13]; 300 g ai/ha): 85%
Herbicidal effect (%) SCPSS ([14]; 300 g ai/ha): 95%

CS(=O)(=O)c1ccc(C(=O)C2C(=O)CCCC2=O)c(Cl)c1COCC1CCCO1 (stereo not shown) [(b-7), 2-{2-chloro-4-mesyl-3-[(tetrahydrofuran-2-ylmethoxy)methyl]-benzoyl}-cyclohexan-1,3-dione]
Phytotoxicity (%) ORYSP ([1]; rice, in vivo, 4 weeks): 0%
Herbicidal effect (%) ECHSS ([2]; 200 g ai/ha): 70%
Herbicidal effect (%) SAGPY ([3]; 200 g ai/ha): 80%
Herbicidal effect (%) CYPSEE ([4]; 200 g ai/ha): 70%
Herbicidal effect (%) MOOVP ([5]; 200 g ai/ha): 95%
Herbicidal effect (%) SCPSS ([7]; 200 g ai/ha): 88%
Phytotoxicity (%) ORYSP ([8]; 200 g ai/ha, treatment at 1 leaf-stage, after 4 weeks): 0%
Herbicidal effect (%) ECHSS ([9]; 200 g ai/ha): 95%
Herbicidal effect (%) SAGPY ([10]; 200 g ai/ha): 90%
Herbicidal effect (%) CYPSEE ([11]; 200 g ai/ha): 90%
Herbicidal effect (%) MOOVP ([12]; 200 g ai/ha): 90%
Herbicidal effect (%) BBBBB ([13]; 200 g ai/ha): 90%
Herbicidal effect (%) SCPSS ([14]; 200 g ai/ha): 95%

COCc1cccc(C(O)c2nc(OC)cc(OC)n2)c1NS(=O)(=O)C(F)F (stereo not shown) [(b-8), pyrimisulfan]
Phytotoxicity (%) ORYSP ([1]; 50 g ai/ha, treatment at 3 leaf-stage, after 4 weeks): 5%
Herbicidal effect (%) ECHSS ([2]; 50 g ai/ha): 85%
Herbicidal effect (%) SAGPY ([3]; 50 g ai/ha): 85%
Herbicidal effect (%) CYPSEE ([4]; 50 g ai/ha): 90%
Herbicidal effect (%) MOOVP ([5]; 50 g ai/ha): 95%
Herbicidal effect (%) BBBBB ([6]; 50 g ai/ha): 85%
Herbicidal effect (%) SCPSS ([7]; 50 g ai/ha): 90%
Phytotoxicity (%) ORYSP ([8]; 50 g ai/ha, treatment at 1 leaf-stage, after 4 weeks): 15%
Herbicidal effect (%) ECHSS ([9]; 50 g ai/ha): 95%
Herbicidal effect (%) SAGPY ([10]; 50 g ai/ha): 90%
Herbicidal effect (%) CYPSEE ([11]; 50 g ai/ha): 95%
Herbicidal effect (%) MOOVP ([12]; 50 g ai/ha): 95%
Herbicidal effect (%) BBBBB ([13]; 50 g ai/ha): 95%
Herbicidal effect (%) SCPSS ([14]; 50 g ai/ha): 95%
